Here are results for five compounds from patent US12256739B2, “Herbicidal mixtures comprising L-glufosinate or its salt and at least one protoporphyrinogen-IX oxidase inhibitor” (BASF SE, priority 2017, dated 2025).

Test in all cases: Post emergence treatment, pot test, herbicidal activity
Holding throughout (assay type): in vivo

One test relates to CYPIR (Cyperus iria). The following applies: scale from 0 to 100. From the text: (§1) Synergism can be described as an interaction where the combined effect of two or more compounds is greater than the sum of the individual effects of each of the compounds. The pres-ence of a synergistic effect in terms of percent control, between two mixing partners (X and Y) can be calculated using the Colby equation (Colby, S. R., 1967, Calculating Synergistic and Antagonistic Responses in Herbicide Combinations, Weeds, 15, 21-22):
(§2) When the observed combined control effect is greater than the expected (calculated) combined control effect (E), then the combined effect is synergistic.
(§3) However, the weed control afforded by the compounds, mixtures or compositions is not limited to these species. The analysis of synergism or antagonism between the mixtures or compositions was determined using Colby's equation.
(§4) The culture containers used were plastic flowerpots containing loamy sand with approximately 3.0% of humus as the substrate. The seeds of the test plants were sown separately for each species and/or resistant biotype. For the pre-emergence treatment, the active ingredients, which had been suspended or emulsified in water, were applied directly after sowing by means of finely distributing nozzles. The containers were irrigated gently to promote germination and growth and subsequently covered with transparent plastic hoods until the plants had rooted. This cover caused uniform germination of the test plants, unless this had been impaired by the active ingredients. For the post-emergence treatment, the test plants were first grown to a height of 3 to 15 cm, depending on the plant habit, and only then treated with the active ingredients which had been suspended or emulsified in water. For this purpose, the test plants were either sown directly and grown in the same containers, or they were first grown separately as seedlings and transplanted into the test containers a few days prior to treatment. Depending on the species, the plants were kept at 10-25° C. or 20-35° C., respectively. The test period extended to 20 days after treatment. During this time, the plants were tended, and their response to the individual treatments was evaluated. The evaluation was carried out by using a scale from 0 to 100. 100 means no emergence of the plants or complete destruction of at least the above-ground parts, and 0 means no damage, or normal course of growth. Data shown are the mean of two replications.
(§5) • L-Glufosinate: 5% EC formulation • Saflufenacil: 342 g/l SC formulation • Compound II-16: 5% EC formulation (Compound II-16: ethyl[3-[2-chloro-4-fluoro-5-(1-methyl-6-trifluoromethyl-2,4-dioxo-1,2,3,4-tetrahydropyrimidin-3-yl)phenoxy]-2-pyridyloxy]acetate) • Trifludimoxazin: 500 g/l SC formulation • Sulfentrazone: 480 g/l SC formulation

Test [1] deals with ECHCG (Echinochloa crus-galli).
Text: as §1, §2, §3, §4, §5

Test [2] relates to ERICA (Erigeron Canadensis, Conyza canadensis). The following applies: scale from 0 to 100.
Text: as §1, §2, §3, §4, §5

Each structure is given as a SMILES string.

Turning to `CCOC(=O)COc1ncccc1Oc1cc(-n2c(=O)cc(C(F)(F)F)n(C)c2=O)c(F)cc1Cl` [Compound II-16, ethyl[3-[2-chloro-4-fluoro-5-(1-methyl-6-trifluoromethyl-2,4-dioxo-1,2,3,4-tetrahydropyrimidin-3-yl)phenoxy]-2-pyridyloxy]acetate], the “Herbicidal activity against CYPIR, Found” value in the test with CYPIR (Cyperus iria) (Compound II-16 alone, 0.25 g ai/ha) was 0. `CP(=O)(O)CC[C@H](N)C(=O)O` [L-Glufosinate, (2S)-2-amino-4-[hydroxy(methyl)phosphinoyl]butyric acid]: in the test on CYPIR (Cyperus iria) (L-Glufosinate alone, 200 g ai/ha), the “Herbicidal activity against CYPIR, Found” value is 0. For the same compound, the “Herbicidal activity against ECHCG, Found” value in test [1] (L-Glufosinate alone, 200 g ai/ha, scale from 0 to 100) stood at 0; in test [1] (L-Glufosinate alone, 400 g ai/ha, scale from 0 to 100, mean of two replications), 65. The “Herbicidal activity against ERICA, Found” value in test [2] (L-Glufosinate alone, 75 g ai/ha) was 90.

For the compound `C#CCN1C(=O)C(F)(F)Oc2cc(F)c(-n3c(=O)n(C)c(=S)n(C)c3=O)cc21` [Trifludimoxazin, trifludimoxazin], the “Herbicidal activity against ECHCG, Found” value in test [1] (Trifludimoxazin alone, 0.25 g ai/ha, scale from 0 to 100) turned out to be 10.

Take `Cc1nn(-c2cc(NS(C)(=O)=O)c(Cl)cc2Cl)c(=O)n1C(F)F` [Sulfentrazone, sulfentrazone]: the “Herbicidal activity against ERICA, Found” value in test [2] (Sulfentrazone alone, 1.25 g ai/ha) was 0; in test [2] (Sulfentrazone alone, 2.5 g ai/ha), 0. On to `CC(C)N(C)S(=O)(=O)NC(=O)c1cc(-n2c(=O)cc(C(F)(F)F)n(C)c2=O)c(F)cc1Cl` [Saflufenacil, saflufenacil], for which, in test [1] (Saflufenacil alone, 0.5 g ai/ha, scale from 0 to 100), the “Herbicidal activity against ECHCG, Found” value is 0.
